Assays:
VERPE [1] = experiment: Pre-emergence herbicidal action against VERPE; assay type: in vivo, Veronica persica
How it was run: (§1)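 Pre-emergence soil-surface spray of formulated compound (WP or EC; 600 to 800 l/ha; 0.2% wetting agent) over seeds sown in sandy loam. After 3 weeks under greenhouse conditions, damage is estimated visually in percent against untreated plants.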

MATIN [2] = experiment: Post-emergence herbicidal action against MATIN; assay type: in vivo, Matricaria inodora; details: dosage 20 g/ha
How it was run: (§2)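 Greenhouse plants in sandy loam were sprayed at the one-leaf stage, 2 to 3 weeks after sowing, with WP or EC formulations as aqueous suspension or emulsion (600 to 800 l/ha water, 0.2% wetting agent). Visual damage was scored about 3 weeks later versus untreated controls, 0% = like control, 100% = dead.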

ABUTH [3] = experiment: Pre-emergence herbicidal action against ABUTH; assay type: in vivo, Abutilon theophrasti; details: for Pre-emergence action against ABUTH (herbicidal activity): 80 g/ha, scored visually after 3 weeks vs untreated controls (100% = plants have died, 0% = like control plants); for Pre-emergence action against ABUTH (herbicidal activity in percent): dosage 20 g/ha, scored visually after 3 weeks vs untreated controls, 100% = plants have died, 0% = like control plants
How it was run: as §1

SETVI [4] = experiment: Pre-emergence herbicidal action against SETVI; assay type: in vivo, Setaria viridis
How it was run: as §1

MATIN [5] = experiment: Pre-emergence herbicidal action against MATIN; assay type: in vivo, Matricaria inodora
How it was run: as §1

ALOMY [6] = experiment: Post-emergence herbicidal action against ALOMY; assay type: in vivo, Alopecurus myosuroides; details: dosage 20 g/ha, visual assessment about 3 weeks after treatment vs untreated controls
How it was run: as §2

SETVI [7] = experiment: Post-emergence herbicidal action against SETVI; assay type: in vivo, Setaria viridis
How it was run: as §2

VERPE [8] = experiment: Post-emergence herbicidal action against VERPE; assay type: in vivo, Veronica persica; details: 20 g/ha
How it was run: as §2

AVEFA [9] = experiment: Pre-emergence herbicidal action against AVEFA; assay type: in vivo, Avena fatua; details: 80 g/ha, pre-emergence
How it was run: as §1

PHBPU [10] = experiment: Post-emergence herbicidal action against PHBPU; assay type: in vivo, Pharbitis purpurea
How it was run: as §2

ECHCG [11] = experiment: Post-emergence herbicidal action against ECHCG; assay type: in vivo, Echinochloa crus-galli
How it was run: as §2

PHBPU [12] = experiment: Pre-emergence herbicidal action against PHBPU; assay type: in vivo, Pharbitis purpurea; details: dosage 80 g/ha
How it was run: as §1

AMARE [13] = experiment: Post-emergence herbicidal action against AMARE; assay type: in vivo, Amaranthus retroflexus; details: 20 g/ha, visual assessment about 3 weeks after treatment, 100% = plants have died, 0% = like control plants
How it was run: as §2

VIOTR [14] = experiment: Pre-emergence herbicidal action against VIOTR; assay type: in vivo, Viola tricolor
How it was run: as §1

AMARE [15] = experiment: Pre-emergence herbicidal action against AMARE; assay type: in vivo, Amaranthus retroflexus
How it was run: as §1

POLCO = experiment: Pre-emergence herbicidal action against POLCO; assay type: in vivo, Polygonum convolvulus; details: dosage 80 g/ha
How it was run: as §1

ALOMY [16] = experiment: Pre-emergence herbicidal action against ALOMY; assay type: in vivo, Alopecurus myosuroides; details: for Pre-emergence action against ALOMY (herbicidal activity): 80 g/ha, scored visually after 3 weeks vs untreated controls (100% = plants have died, 0% = like control plants)
How it was run: as §1

ABUTH [17] = experiment: Post-emergence herbicidal action against ABUTH; assay type: in vivo, Abutilon theophrasti; details: visual assessment about 3 weeks after treatment vs untreated controls
How it was run: as §2

AVEFA [18] = experiment: Post-emergence herbicidal action against AVEFA; assay type: in vivo, Avena fatua; details: visual assessment about 3 weeks after treatment, 100% = plants have died, 0% = like control plants
How it was run: as §2

ECHCG [19] = experiment: Pre-emergence herbicidal action against ECHCG; assay type: in vivo, Echinochloa crus-galli
How it was run: as §1

VIOTR [20] = experiment: Post-emergence herbicidal action against VIOTR; assay type: in vivo, Viola tricolor
How it was run: as §2

DIGSA [21] = experiment: Post-emergence herbicidal action against DIGSA; assay type: in vivo, Digitaria sanguinalis
How it was run: as §2

DIGSA [22] = experiment: Pre-emergence herbicidal action against DIGSA; assay type: in vivo, Digitaria sanguinalis
How it was run: as §1

[23] = 20 g/ha, scored visually after 3 weeks vs untreated controls, 100% = plants have died, 0% = like control plants
[24] = 80 g/ha, scored visually after 3 weeks vs untreated controls (100% = plants have died, 0% = like control plants)

CSc1c(C(=O)Nc2nnnn2C)ccc(C(F)(F)F)c1C(=O)NCC(F)F [Example 1-86]
100%: Pre-emergence action against VERPE in % (VERPE [1]; dosage 80 g/ha) | Pre-emergence action against ABUTH (herbicidal activity) (ABUTH [3]) | Pre-emergence action against ABUTH (herbicidal activity in percent) (ABUTH [3]) | Pre-emergence action against SETVI in % (SETVI [4]; dosage 80 g/ha) | Pre-emergence action against MATIN in % (MATIN [5]; dosage 20 g/ha) | Pre-emergence action against MATIN in % (MATIN [5]; dosage 80 g/ha) | Post-emergence action against ALOMY in % (ALOMY [6]) | Pre-emergence action against AVEFA in % (AVEFA [9]) | Post-emergence action against ECHCG in % (ECHCG [11]; dosage 20 g/ha) | Post-emergence action at 20 g/ha against AMARE in % (AMARE [13]) | Pre-emergence action against VIOTR in % (VIOTR [14]; dosage 20 g/ha) | Pre-emergence action against VIOTR in % (VIOTR [14]; dosage 80 g/ha) | Pre-emergence action against AMARE in % (AMARE [15]; [23]) | Pre-emergence action against AMARE in % (AMARE [15]; [24]) | Pre-emergence action against ALOMY (herbicidal activity) (ALOMY [16]) | Post-emergence action against ABUTH in % (ABUTH [17]; dosage 5 g/ha) | Post-emergence action against ABUTH in % (ABUTH [17]; dosage 20 g/ha) | Post-emergence action at 20 g/ha against AVEFA in % (AVEFA [18]) | Pre-emergence action against ECHCG in % (ECHCG [19]; 80 g/ha) | Post-emergence action against VIOTR in % (VIOTR [20]; 20 g/ha)
80%: Post-emergence action against MATIN in % (MATIN [2]) | Pre-emergence action against SETVI in % (SETVI [4]; dosage 20 g/ha) | Post-emergence action against SETVI in % (SETVI [7]; dosage 20 g/ha) | Post-emergence action against PHBPU in % (PHBPU [10]; dosage 5 g/ha) | Post-emergence action against ECHCG in % (ECHCG [11]; dosage 5 g/ha) | Pre-emergence action against PHBPU in % (PHBPU [12]) | Pre-emergence action against POLCO in % (POLCO)
90%: Post-emergence action against VERPE in % (VERPE [8]) | Post-emergence action against PHBPU in % (PHBPU [10]; dosage 20 g/ha) | Pre-emergence action against ECHCG in % (ECHCG [19]; 20 g/ha) | Post-emergence action against VIOTR in % (VIOTR [20]; 5 g/ha)

CCn1nnnc1NC(=O)c1ccc(C(F)(F)F)c(C(=O)NCCOC)c1C [Example 2-34]
100%: Pre-emergence action against ABUTH (herbicidal activity) (ABUTH [3]) | Pre-emergence action against SETVI in % (SETVI [4]; dosage 20 g/ha) | Pre-emergence action against SETVI in % (SETVI [4]; dosage 80 g/ha) | Pre-emergence action against MATIN in % (MATIN [5]; dosage 80 g/ha) | Post-emergence action against ALOMY in % (ALOMY [6]) | Post-emergence action against PHBPU in % (PHBPU [10]; dosage 20 g/ha) | Post-emergence action against ECHCG in % (ECHCG [11]; dosage 20 g/ha) | Post-emergence action at 20 g/ha against AMARE in % (AMARE [13]) | Post-emergence action against DIGSA (DIGSA [21]; 20 g/ha) | Pre-emergence action against VIOTR in % (VIOTR [14]; dosage 20 g/ha) | Pre-emergence action against VIOTR in % (VIOTR [14]; dosage 80 g/ha) | Pre-emergence action against AMARE in % (AMARE [15]; [24]) | Pre-emergence action against DIGSA in % (DIGSA [22]; dosage 20 g/ha) | Pre-emergence action against DIGSA in % (DIGSA [22]; dosage 80 g/ha)
80%: Pre-emergence action against ABUTH (herbicidal activity in percent) (ABUTH [3]) | Post-emergence action against SETVI in % (SETVI [7]; dosage 5 g/ha) | Post-emergence action against VERPE in % (VERPE [8]) | Pre-emergence action against PHBPU in % (PHBPU [12]) | Post-emergence action against DIGSA in % (DIGSA [21]; 5 g/ha) | Pre-emergence action against ALOMY (ALOMY [16]; 20 g/ha, scored visually after 3 weeks, 100% = plants have died, 0% = like control plants) | Post-emergence action at 5 g/ha against AVEFA in % (AVEFA [18]; 5 g/ha) | Post-emergence action at 20 g/ha against AVEFA in % (AVEFA [18])
90%: Pre-emergence action against VERPE in % (VERPE [1]; dosage 20 g/ha) | Pre-emergence action against VERPE in % (VERPE [1]; dosage 80 g/ha) | Pre-emergence action against MATIN in % (MATIN [5]; dosage 20 g/ha) | Post-emergence action against SETVI in % (SETVI [7]; dosage 20 g/ha) | Pre-emergence action against AVEFA in % (AVEFA [9]) | Post-emergence action against PHBPU in % (PHBPU [10]; dosage 5 g/ha) | Post-emergence action against ECHCG in % (ECHCG [11]; dosage 5 g/ha) | Pre-emergence action against AMARE in % (AMARE [15]; [23]) | Pre-emergence action against POLCO in % (POLCO) | Pre-emergence action against ALOMY (herbicidal activity) (ALOMY [16]) | Post-emergence action against ABUTH in % (ABUTH [17]; dosage 5 g/ha) | Post-emergence action against ABUTH in % (ABUTH [17]; dosage 20 g/ha) | Pre-emergence action against ECHCG in % (ECHCG [19]; 80 g/ha)

From patent publication US12655116B2, “Substituted isophthalic acid diamides” (Bayer Aktiengesellschaft, priority 2020, dated 2026)
